US20080027010A1, “Treatment of refractory cancers using Na+/K+-ATPase inhibitors” (Bionaut Pharmaceuticals, Inc., priority 2004, published 2008)
Entries after “also recorded” stand apart in the source; their conditions may differ.

Key:
[1] = tested on: VEGF; assay: VEGF secretion in tumor cells; type: cell-based; details: FIG. 8
[2] = tested on: several different cancer cell lines; assay: Proliferation of several different cancer cell lines; type: cell-based
[3] = tested on: Na/K-ATPase; details: cited from earlier work
[4] = tested on: HIF-1α; assay: HIF-1α Western blot in human tumor cells under hypoxia; type: cell-based
Experimental: For HIF1-alpha Western blots, Hep3B cells were seeded in growth medium at a density of 7×10^6 cells per 100 mm dish. […] Samples were fractionated on 3-8% Tris-Acetate gel (Invitrogen NUPAGE system) by sodium dodecyl sulfate (SDS)-polyacrylamide gel electropherosis and transferred onto nitrocellulose membrane. […] Anti-Beta-actin monoclonal antibody (Abcam, ab6276-100) was used at a 1:5000 dilution with a 30-minute incubation at room temperature.
The cells were placed in hypoxic conditions for 4 hours for HIF1-alpha accumulation.
The cells were lysed and proteins were resolved by SDS-PAGE and transferred to a nylon membrane. The membrane was immunoblotted with anti-HIF-1α and anti-HIF1β MAb, and anti-beta-actin antibodies.
HIF-1α and β-actin protein level was determined by western blotting.

[5] = tested on: HIF-1α; assay: HIF-1α induced under normoxia by PHD inhibitor L-mimosone in Hep3B cells, Western blot; type: cell-based, human
Experimental: Abundance of HIF-1α and β-actin was determined by western blotting.

[6] = tested on: Panc-1 human pancreatic xenograft; assay: Panc-1 human pancreatic tumor xenograft in nude mice; type: in vivo; details: Panc-1 xenografts in nude mice; FIGS. 16, 17, 22
Experimental: The control animals received pumps containing vehicle (50% DMSO in DMEM). The mice treated with standard chemotherapy agent received intra-peritoneal injections of Gemcitabine at 40 mg/kg every 3 days for 4 treatments (q3d×4). Each data point represent average tumor weight (n=8) and error bars indicate SEM.

[7] = tested on: Caki-1 human renal cancer xenograft; type: in vivo; details: xenografted Caki-1 human renal tumors in nude mice; FIG. 23
Source text: Female nude mice (nu/nu) between 5 and 6 weeks of age weighing approximately 20 g were implanted subcutaneously (s.c.) by trocar with fragments of human tumors harvested from s.c. grown tumors in nude mice hosts. […] Each group contains 8-10 mice, each of which was ear tagged and followed throughout the experiment.
The administration of drugs or controls began the day the animals were pair-matched (Day 1). […] Mice were weighed and tumor measurements were obtained using calipers twice weekly, starting Day 1. These tumor measurements were converted to mg tumor weight by standard formula, (W^2×L)/2. The experiment is terminated when the control group tumor size reached an average of about 1 gram. Upon termination, the mice were weighed, sacrificed and their tumors excised. The tumors were weighed and the mean tumor weight per group was calculated.

[8] = mice
[9] = cited from earlier work
[10] = cited from earlier work; remark: listed apart in the source
[11] = tested on: A549 Sentinel Line; assay: Sentinel Line beta-galactosidase reporter assay (FACS, FDG loading); type: cell-based, human; details: 40 hrs; mitoxantrone 8 nM, paclitaxel 1.5 nM, carboplatin 15 μM, Iressa 4 μM
Experimental: The expression level of beta-galactosidase gene in sentinel lines was determined by using a fluorescent substrate fluorescein di-β-D-Galactopyranside (FDG, Marker Gene Tech, #M0250) introduced into cells by hypotonic shock. Cleavage by beta-galactosidase results in the production of free fluorescein, which is unable to cross the plasma membrane and is trapped inside the beta-gal positive cells. Briefly, the cells to be analyzed are trypsinized, and resuspended in PBS containing 2 mM FDG (diluted from a 10 mM stock prepared in 8:1:1 mixture of water:ethanol:DMSO). The cells were then shocked for 4 minutes at 37° C. and transferred to FACS tubes containing cold 1×PBS on ice. Samples were kept on ice for 30 minutes and analyzed by FACS in FL1 channel.
Sentinel Line cells with beta-galactosidase reporter gene were plated at 1×10^5 cells/10 cm dish. […] After 40 hrs, the cells were trypsinized and the expression level of reporter gene was determined by FDG loading.
The reporter activity was measured by FACS analysis.

C[C@@H]1O[C@@H](O[C@H]2C[C@@H](O)[C@]3(CO)[C@H]4[C@H](O)C[C@]5(C)[C@@H](C6=CC(=O)OC6)CC[C@]5(O)[C@@H]4CC[C@]3(O)C2)[C@H](O)[C@H](O)[C@H]1O [BNC-1, ouabain]
secretion of the angiogenesis factor VEGF [1]: directly or indirectly inhibits
decrease of concentration effective for inhibiting proliferation of cancer cells ([2]; combination with steroid signal modulator (Casodex)): 5 fold
IC50 ([2]; proliferation of cancer cell lines, read-out: IC50 across several different cancer cell lines): 80 to 300 nM
order of Na/K-ATPase-inhibition [3]: Ouabain<Digoxin<Proscillaridin

C[C@@H]1OC(OC2C=C3CCC4C(CC[C@]5(C)[C@@H](c6ccc(=O)oc6)CC[C@]45O)[C@@]3(C)CC2)[C@H](O)[C@H](O)[C@H]1O (stereo partly drawn) [BNC-4, proscillaridin]
HIF-1α expression ([4]; 0.1 μM): completely inhibits HIF-1α expression
HIF-1α expression ([4]; 1 μM): completely inhibits HIF-1α expression
HIF-1α accumulation ([5]; 200 μM L-mimosone for 18 h): blocks HIF-1α induction; also recorded: eliminated HIF-1α accumulation
HIF-1α accumulation ([5]; L-mimosone, low concentration tested): did not appear to have an effect
secretion of the angiogenesis factor VEGF [1]: directly or indirectly inhibits
tumor growth [6]: significantly reduce tumor growth
tumor growth [7]: significantly reduce tumor growth
serum level corresponding to maximum toxic dose (MTD) [8]: about 518 (±121) ng/ml
toxic serum concentration at day 1 ([8]; steady state delivery): about 518±121 ng/ml
order of Na/K-ATPase-inhibition [3]: Ouabain<Digoxin<Proscillaridin
time of third plasma concentration peak ([9]; after dosing): about 10 hours
influence of impaired kidney function on clearance ([9]; in vivo): no influence on clearance
patients taken off treatment because of negative side effects ([10]; 1067 patients observed for up to 3 years): 0.7%
doses producing typical cardiac glycoside intoxication symptoms ([10]; healthy individuals): above 4 mg p.o./d
average level of side effects (nausea, seasickness, headache, vomiting, stomach cramps, diarrhea) in clinical reports ([10]; human, in vivo): 5%
dose taken without any negative side effects ([10]; long-term medication of cardiac illnesses): up to 1.5 mg per day
reported cases in which therapy could be resumed after a brief hiatus ([10]; review of 47 clinical studies): > 95%

C[C@@H]1OC(OC2C=C3CCC4C5=CC[C@H](c6ccc(=O)oc6)[C@@]5(C)CCC4[C@@]3(C)CC2)[C@H](O)[C@H](O)[C@H]1O (stereo partly drawn) [BNC-151]
HIF-1α expression ([4]; 1 μM): Significant inhibition of HIF-1α expression

N.N.O=C([O-])C1(C(=O)[O-])CCC1.[Pt+2] [Carboplatin]
cell death and reporter activity in Sentinel Lines [11]: increases in cell death and reporter activity

C[C@H]1O[C@@H](O[C@H]2[C@@H](O)C[C@H](O[C@H]3[C@@H](O)C[C@H](O[C@H]4CC[C@@]5(C)[C@H](CC[C@@H]6[C@@H]5C[C@@H](O)[C@]5(C)[C@@H](C7=CC(=O)OC7)CC[C@]65O)C4)O[C@@H]3C)O[C@@H]2C)C[C@H](O)[C@@H]1O [Digoxin]
order of Na/K-ATPase-inhibition [3]: Ouabain<Digoxin<Proscillaridin

COc1cc2ncnc(Nc3ccc(F)c(Cl)c3)c2cc1OCCCN1CCOCC1 [Iressa]
cell death and reporter activity in Sentinel Lines [11]: reduction in reporter activity

O=C1c2c(O)ccc(O)c2C(=O)c2c(NCCNCCO)ccc(NCCNCCO)c21 [mitoxanthrone, mitoxantrone]
cell death and reporter activity in Sentinel Lines [11]: increases in cell death and reporter activity

CC(=O)O[C@H]1C(=O)[C@@]2(C)[C@H]([C@H](OC(=O)c3ccccc3)[C@]3(O)C[C@H](OC(=O)[C@H](O)[C@@H](NC(=O)c4ccccc4)c4ccccc4)C(C)=C1C3(C)C)[C@]1(OC(C)=O)CO[C@@H]1C[C@@H]2O [paclitaxel]
cell death and reporter activity in Sentinel Lines [11]: increases in cell death and reporter activity
